Data: patent US11865126B2, “Method for treating anxiety disorders, headache disorders, and eating disorders with psilocybin” (priority 2019, dated 2024)

Test system: healthy subjects
Assay: Phase 1 healthy volunteer study, single oral dose: treatment-emergent adverse events
Type: in vivo, human
Method: A Phase 1 randomized, double-blind, placebo-controlled study to evaluate the effect of psilocybin on cognitive and emotional processing as compared to placebo in healthy volunteers was conducted. The study investigated the short-term (Day 7) and long-term (Day 28) effects of moderate (10 mg) and high doses (25 mg) of psilocybin on key domains of cognition, such as episodic memory, attention, working and spatial memory, social cognition and elements of executive function, including cognitive flexibility.
90 healthy subjects were studied. Approximately 50% of the subjects were psilocybin-naïve. For subjects with prior psilocybin experience, the last exposure was at least 1 year prior to the signing of the Informed Consent Form (ICF). Approximately 50% of the subjects were female. Subjects were stratified by sex and age (18-35 years old; >35 years old).
Each subject was assigned 1 treatment bottle containing 5 capsules packaged in a double-blind fashion, depending on the randomized treatment arm, the bottle contained one of the following: • a. Psilocybin 10 mg: 2×5-mg oral psilocybin capsules plus 3× placebo capsules • b. Psilocybin 25 mg: 5×5-mg oral psilocybin capsules • c. Placebo: 5× placebo capsules
Each 5-mg oral psilocybin capsule comprised 5 mg crystalline psilocybin in the form of Polymorph A, 12.5 mg of SMCC 50, 79.5 mg of SMCC 90, 1 mg sodium starch glycolate, 1 mg colloidal silicon dioxide, and 1 mg sodium stearyl fumarate
Adverse events: Throughout the course of the study, all AEs were monitored and recorded. Each AE was classified according to the following criteria: • i. […] Moderate: The AE produces some impairment of functioning, but is not hazardous to the subject's health. • iii. Severe: The AE produces significant impairment of functioning or incapacitation and is a definite hazard to the subject's health.
Selected Adverse Events of included: • (a) Euphoric mood • (b) Dissociative disorder • (c) Hallucination • (d) Psychotic disorder • (e) Cognitive disorder • (f) Disturbance in attention • (g) Altered mood • (h) Impairment of psychomotor skills • (i) Inappropriate affect • (j) Overdose • (k) Intentional product misuse • (l) Illusion
For example, drug-induced hepatitis that resolved without evidence of hepatic failure would not be considered life threatening even though drug-induced hepatitis can be fatal. • (c) Inpatient hospitalization or prolongation of existing hospitalization. • (d) Persistent or significant disability/incapacity. • (e) Congenital anomaly/birth defect in the offspring of a subject who received psilocybin. • (f) Other: Important medical events that may not result in death, be life-threatening, or require hospitalization, may be considered an SAE when, based upon appropriate medical judgment, they may jeopardize the subject and may require medical or surgical intervention to prevent one of the outcomes listed in this definition. […] Visits:
Visit 3 (V3): Drug Administration (Day 0): The subject was asked to eat a light breakfast at least two hours prior to coming to the clinic for study drug administration. On Day 0 (V3), the subject underwent the SSTS, had vital signs obtained, medications reviewed, AEs recorded and eligibility reviewed prior to being randomized to study drug. The study drug was administered to up to six subjects simultaneously in individual beds separated by a curtain. The subject was invited to put on eyeshades and headphones, lie down and listen to calming music for the rest of the session (six hours). The subject was supported 1:1 with a chaperone and supervised by the study psychiatrist and lead therapist.
Recording of adverse events and prior/concomitant medication was performed at each visit.
During administration of psilocybin, each subject received one on one support from a trained assisting therapist and each dosing session was supervised by a study psychiatrist and a lead therapist. […]

CN(C)CCc1c[nH]c2cccc(OP(=O)(O)O)c12 [psilocybin]
7: Euphoric mood, Events (Psilocybin 10 mg (N = 30))
2: Somatic hallucination, worst severity Mild: Events (25 mg) | Somatic hallucination, worst severity Moderate: Events (25 mg) | Somatic hallucination, worst severity Severe: Events (25 mg) | Tension headache, worst severity Moderate: Events (25 mg) | Time perception altered, worst severity Mild: Events (25 mg) | Reported 'Mood altered' events: Increased empathy (25 mg psilocybin (n = 30)) | Reported 'Mood altered' events: Sense of oneness (25 mg psilocybin (n = 30)) | Change in sustained attention, Events (Psilocybin 10 mg (N = 30)) | Dissociative identity disorder, Events (Psilocybin 10 mg (N = 30)) | Hallucination, tactile, Events (Psilocybin 10 mg (N = 30)) | Nervous system disorders, Events (Psilocybin 10 mg (N = 30)) | Depressed mood, Events (Psilocybin 25 mg (N = 30)) | Dissociative identity disorder, Events (Psilocybin 25 mg (N = 30)) | Hallucination, Events (Psilocybin 25 mg (N = 30))
27: Psychiatric disorders, worst severity Severe: Events (25 mg)
106: Selected TEAE (any), Events (Psilocybin 10 mg (N = 30)) | Psychiatric disorders, Events (Psilocybin 25 mg (N = 30)) | Selected TEAE (any), Events (Psilocybin 25 mg (N = 30))
43: Nervous system disorders: Events (25 mg)
1: Nervous system disorders, worst severity Severe: Events (25 mg) | Paraesthesia, worst severity Moderate: Events (25 mg) | Reported 'Mood altered' events: Clarity of thought (25 mg psilocybin (n = 30)) | Reported 'Mood altered' events: Contemplative state (25 mg psilocybin (n = 30)) | Reported 'Mood altered' events: Increased compassion (25 mg psilocybin (n = 30)) | Reported 'Mood altered' events: Increased creativity (25 mg psilocybin (n = 30)) | Reported 'Mood altered' events: Increased sense of connectedness (25 mg psilocybin (n = 30)) | Reported 'Mood altered' events: Laughter (25 mg psilocybin (n = 30)) | Reported 'Mood altered' events: More socially upbeat (25 mg psilocybin (n = 30)) | Reported 'Mood altered' events: Saw themselves from a new perspective (25 mg psilocybin (n = 30)) | Depressed mood, Events (Psilocybin 10 mg (N = 30)) | Hallucination, gustatory, Events (Psilocybin 10 mg (N = 30)) | Hallucination, olfactory, Events (Psilocybin 10 mg (N = 30)) | Memory impairment, Events (Psilocybin 10 mg (N = 30)) | Psychomotor skills impaired, Events (Psilocybin 10 mg (N = 30)) | Hallucination, olfactory, Events (Psilocybin 25 mg (N = 30)) | Substance-induced psychotic disorder, Events (Psilocybin 25 mg (N = 30))
45: Psychiatric disorders, worst severity Moderate: Events (25 mg)
5: Psychiatric disorders, worst severity Mild: Events (25 mg) | Affect lability, Events (Psilocybin 10 mg (N = 30))
6: Somatic hallucination: Events (25 mg) | Tension headache: Events (25 mg) | Time perception altered: Events (25 mg) | Somatic hallucination, Events (Psilocybin 25 mg (N = 30))
27 (90.0): Selected TEAE (any), N (%) (Psilocybin 10 mg (N = 30)) | Selected TEAE (any), N (%) (Psilocybin 25 mg (N = 30))
22: Hallucination, visual, Events (Psilocybin 25 mg (N = 30))
6 (20.0): Tension headache: N (%) (25 mg) | Time perception altered: N (%) (25 mg)
4: Paraesthesia: Events (25 mg) | Tension headache, worst severity Mild: Events (25 mg) | Time perception altered, worst severity Moderate: Events (25 mg) | Reported 'Mood altered' events: Reflections (25 mg psilocybin (n = 30)) | Hallucination, auditory, Events (Psilocybin 10 mg (N = 30)) | Hallucination, auditory, Events (Psilocybin 25 mg (N = 30)) | Hallucination, tactile, Events (Psilocybin 25 mg (N = 30))
(96.7) %: Any TEAE: % of subjects (25 mg, listed as Psilocybin)
2 (6.7): Nervous system disorders, N (%) (Psilocybin 10 mg (N = 30))
0: Paraesthesia, worst severity Severe: Events (25 mg) | Paraesthesia, worst severity Severe: N (%) (25 mg) | Tension headache, worst severity Severe: Events (25 mg) | Tension headache, worst severity Severe: N (%) (25 mg) | Time perception altered, worst severity Severe: Events (25 mg) | Time perception altered, worst severity Severe: N (%) (25 mg) | Reported 'Mood altered' events: Being less judgmental (25 mg psilocybin (n = 30)) | Reported 'Mood altered' events: Calm (25 mg psilocybin (n = 30)) | Reported 'Mood altered' events: Feeling more moody/sensitive (25 mg psilocybin (n = 30)) | Reported 'Mood altered' events: Feeling of adrenaline release (25 mg psilocybin (n = 30)) | Reported 'Mood altered' events: Feeling rested (25 mg psilocybin (n = 30)) | Reported 'Mood altered' events: Increased wit (25 mg psilocybin (n = 30)) | Reported 'Mood altered' events: Negative mood (25 mg psilocybin (n = 30)) | Reported 'Mood altered' events: Sense of openness (25 mg psilocybin (n = 30)) | Reported 'Mood altered' events: Unusual appreciation of music (25 mg psilocybin (n = 30)) | Substance-induced psychotic disorder, Events (Psilocybin 10 mg (N = 30)) | Substance-induced psychotic disorder, N (%) (Psilocybin 10 mg (N = 30)) | Change in sustained attention, Events (Psilocybin 25 mg (N = 30)) | Change in sustained attention, N (%) (Psilocybin 25 mg (N = 30)) | Hallucination, gustatory, Events (Psilocybin 25 mg (N = 30)) | Hallucination, gustatory, N (%) (Psilocybin 25 mg (N = 30)) | Memory impairment, Events (Psilocybin 25 mg (N = 30)) | Memory impairment, N (%) (Psilocybin 25 mg (N = 30)) | Nervous system disorders, Events (Psilocybin 25 mg (N = 30)) | Nervous system disorders, N (%) (Psilocybin 25 mg (N = 30)) | Psychomotor skills impaired, Events (Psilocybin 25 mg (N = 30)) | Psychomotor skills impaired, N (%) (Psilocybin 25 mg (N = 30))
23: Mood altered, Events (Psilocybin 10 mg (N = 30))
8: Reported 'Mood altered' events: Introspection (25 mg psilocybin (n = 30)) | Somatic hallucination, Events (Psilocybin 10 mg (N = 30)) | Euphoric mood, Events (Psilocybin 25 mg (N = 30))
3: Paraesthesia, worst severity Mild: Events (25 mg) | Respiratory, thoracic and mediastinal disorders: Events (25 mg) | Hallucination, Events (Psilocybin 10 mg (N = 30)) | Affect lability, Events (Psilocybin 25 mg (N = 30))
9 (30.0): Psychiatric disorders, worst severity Severe: N (%) (25 mg)
25: Illusion, Events (Psilocybin 10 mg (N = 30)) | Mood altered, Events (Psilocybin 25 mg (N = 30))
10: Nervous system disorders, worst severity Moderate: Events (25 mg)
3 (10.0): Paraesthesia, worst severity Mild: N (%) (25 mg) | Respiratory, thoracic and mediastinal disorders: N (%) (25 mg) | Hallucination, N (%) (Psilocybin 10 mg (N = 30)) | Affect lability, N (%) (Psilocybin 25 mg (N = 30))
104: Psychiatric disorders, Events (Psilocybin 10 mg (N = 30))
26: Illusion, Events (Psilocybin 25 mg (N = 30))
20: Hallucination, visual, Events (Psilocybin 10 mg (N = 30))
